Results published in article PMC10086185, “Synthesis, radiolabeling, and evaluation of a (4-quinolinoyl)glycyl-2-cyanopyrrolidine analogue for fibroblast activation protein (FAP) PET imaging” (Frontiers in Bioengineering and Biotechnology, 2023).
Several values for one entry are separate records, joined by “and”; a condition that tells them apart may be missing. Identical values can stand only once.

How the values were obtained:
[1] = Micro-PET/CT imaging, organ SUV in tumor-bearing nude mice; format: in vivo, BALB/c nude mice
Method: (§1) BALB/c nude mice used in this study were obtained from the Animal Center of Sichuan University. Tumor-bearing mouse models were established by the subcutaneous injection of 100 µL of PBS suspension containing approximately 1*10^6 tumor cells to the body side of the subjects. The tumor volume was monitored every day, and the tumor-bearing mice were ready for imaging once the tumor volume reached 0.5 mm^3 (tumor volume can be calculated by this equation: Volume = 0.5 * long tail * short tail *short tail). Micro-PET/CT imaging studies were performed on the IRIS Micro-PET/CT system (Inviscan SAS, France). Tumor-bearing mice were injected with approximately 11.2–14.8 MBq of [^18F]3 (200 µL) via the tail vein under anaesthetization by isoflurane. Static PET images were obtained at designated time points and were reconstructed with a 3D-OSEM algorithm using a Monte Carlo-based accurate detector model. Then, 170 sec-CT acquisition was conducted with 50 kV, 1 mA X-ray output for attenuation correction and anatomical orientation. ROIs (regions of interest) were drawn on the lung, kidney, liver, and tumor by OsiriX software. SUV (standardized uptake value) of the ROIs was directly obtained from OsiriX for each subject according to this formula: SUV = Voxal value (Bq/mL) * Body weight (kg)/(Decay corrected Dose (Bq) * 1,000 (g/kg)).
BALB/c nude mice used in this study were obtained from the Animal Center of Sichuan university. Tumor-bearing mice model were established by the subcutaneous injection of 100 µL of PBS suspension containing approximately 1*10^6 tumor cells to the body side of the subjects. The tumor volume was monitored every day and the tumor-bearing mice were ready for imaging once the tumor volume reach 0.5 mm^3 (tumor volume can be calculated by this equation: Volume = 0.5 * long tail * short tail *short tail). Micro-PET/CT imaging studies were performed on the IRIS Micro-PET/CT system (Inviscan SAS, France). Tumor-bearing mice were injected with approximately 11.2-14.8 MBq of [^18F]3 (200 µL) via tail vein under anaesthetization by isoflurane. Static PET images were obtained at designated time points and were reconstructed with a 3D-OSEM algorithm using a Monte-Carlo based accurate detector model. A 170 sec-CT acquisition was conducted with 50 kV, 1 mA X-ray output for attenuation correction and anatomical orientation. ROIs (regions of interest) were drawn on lung, kidney, liver and tumor by Osirix software. SUV (standardized uptake value) of the ROIs was directly obtained from Osirix for each subject according to this formula: SUV = Voxal value (Bq/mL) * Body weight (kg)/(Decay corrected Dose (Bq) * 1000 (g/kg)).

[2] = Biodistribution in normal Kunming mice; format: in vivo; conditions: for Biodistribution, Intestine, single mice: individual animals; for Biodistribution, Blood / Biodistribution, Bone / Biodistribution, Brain / Biodistribution, Heart / Biodistribution, Intestine / Biodistribution, Kidney / Biodistribution, Lungs / Biodistribution, Muscle / Biodistribution, Spleen / Biodistribution, Stomach / Biodistribution, Liver: mean (SD), n = 5
Method: Normal Kunming mice (4 weeks, 20–25 g) were injected intravenously with about 740 KBq of [^18F]3 in 100 µL of PBS saline solution via the tail vein. All subjects were grouped by time points (n = 5). At designated time points, all subjects were sacrificed, and the organs and tissues were harvested, weighted, and counted in a PerkinElmer Wizard 2470 gamma counter. All the counts obtained from the gamma counter were decay-corrected and used to calculate the tissue biodistribution data, which is presented as the percentage of injected dose per gram of organ (%ID/g).

U87MG xenograft tumors = test: Micro-PET/CT imaging, U87MG xenograft tumors; format: in vivo, BALB/c nude mice; conditions: U87MG xenografted tumors, within 90 min
Method: as §1, with “ROIs (regions of interest) were drawn on the lung, kidney, liver, and tumor by OsiriX software. SUV (standardized uptake value) of the ROIs was directly obtained from OsiriX for each subject according to this formula: SUV = Voxal value (Bq/mL) * Body weight (kg)/(Decay corrected Dose (Bq) * 1,000 (g/kg)).” left out
BALB/c nude mice used in this study were obtained from the Animal Center of Sichuan university. […] The tumor volume was monitored every day and the tumor-bearing mice were ready for imaging once the tumor volume reach 0.5 mm^3 (tumor volume can be calculated by this equation: Volume = 0.5 * long tail * short tail *short tail). […]

- SUV in the liver ([1]; 15 min p.i.): about 5.0
- SUV in the kidney ([1]; 90 min p.i.): 3.0
- SUV in the bladder ([1]; end of the scan): greater than 8.0
- SUV in the liver ([1]; end of the scan (90 min)): 2.0
- SUV in the kidney ([1]; initial): about 5.0
- SUV in the brain ([1]; mouse, in vivo): less than 0.3
- Biodistribution, Blood ([2]; 5 min post-injection): 12.96 ± 2.03 %ID/g
- Biodistribution, Bone ([2]; 5 min post-injection): 1.86 ± 0.54 %ID/g
- Biodistribution, Brain ([2]; 5 min post-injection): 0.80 ± 0.29 %ID/g
- Biodistribution, Heart ([2]; 5 min post-injection): 11.00 ± 1.64 %ID/g
- Biodistribution, Intestine ([2]; 5 min post-injection): 13.99 ± 4.60 %ID/g
- Biodistribution, Kidney ([2]; 5 min post-injection): 22.59 ± 5.74 %ID/g
- Biodistribution, Lungs ([2]; 5 min post-injection): 11.36 ± 1.89 %ID/g
- Biodistribution, Muscle ([2]; 5 min post-injection): 8.02 ± 1.34 %ID/g
- Biodistribution, Spleen ([2]; 5 min post-injection): 8.71 ± 1.50 %ID/g
- Biodistribution, Stomach ([2]; 5 min post-injection): 7.82 ± 0.86 %ID/g
- Biodistribution, Blood ([2]; 15 min post-injection): 6.90 ± 1.13 %ID/g
- Biodistribution, Bone ([2]; 15 min post-injection): 1.59 ± 0.51 %ID/g
- Biodistribution, Brain ([2]; 15 min post-injection): 0.61 ± 0.25 %ID/g
- Biodistribution, Heart ([2]; 15 min post-injection): 5.71 ± 1.12 %ID/g
- Biodistribution, Intestine ([2]; 15 min post-injection): 20.10 ± 6.14 %ID/g
- Biodistribution, Kidney ([2]; 15 min post-injection): 12.72 ± 3.88 %ID/g
- Biodistribution, Liver ([2]; 15 min post-injection): 27.82 ± 6.35 %ID/g
- Biodistribution, Lungs ([2]; 15 min post-injection): 6.84 ± 1.43 %ID/g
- Biodistribution, Muscle ([2]; 15 min post-injection): 5.32 ± 1.02 %ID/g
- Biodistribution, Spleen ([2]; 15 min post-injection): 4.56 ± 1.09 %ID/g
- Biodistribution, Stomach ([2]; 15 min post-injection): 6.98 ± 1.36 %ID/g
- Biodistribution, Blood ([2]; 30 min post-injection): 4.35 ± 0.66 %ID/g
- Biodistribution, Bone ([2]; 30 min post-injection): 1.80 ± 0.60 %ID/g
- Biodistribution, Brain ([2]; 30 min post-injection): 0.35 ± 0.10 %ID/g
- Biodistribution, Heart ([2]; 30 min post-injection): 3.53 ± 0.33 %ID/g
- Biodistribution, Intestine ([2]; 30 min post-injection): 33.51 ± 12.05 %ID/g
- Biodistribution, Kidney ([2]; 30 min post-injection): 8.48 ± 1.34 %ID/g
- Biodistribution, Liver ([2]; 30 min post-injection): 15.34 ± 2.67 %ID/g
- Biodistribution, Lungs ([2]; 30 min post-injection): 5.15 ± 1.59 %ID/g
- Biodistribution, Spleen ([2]; 30 min post-injection): 2.95 ± 0.49 %ID/g
- Biodistribution, Stomach ([2]; 30 min post-injection): 5.50 ± 1.26 %ID/g
- Biodistribution, Blood ([2]; 60 min post-injection): 2.61 ± 0.18 %ID/g
- Biodistribution, Bone ([2]; 60 min post-injection): 1.91 ± 0.33 %ID/g
- Biodistribution, Brain ([2]; 60 min post-injection): 0.20 ± 0.04 %ID/g
- Biodistribution, Heart ([2]; 60 min post-injection): 1.91 ± 0.24 %ID/g
- Biodistribution, Intestine ([2]; 60 min post-injection): 19.33 ± 7.66 %ID/g
- Biodistribution, Kidney ([2]; 60 min post-injection): 5.07 ± 0.81 %ID/g
- Biodistribution, Liver ([2]; 60 min post-injection): 9.03 ± 3.62 %ID/g
- Biodistribution, Lungs ([2]; 60 min post-injection): 2.35 ± 1.07 %ID/g
- Biodistribution, Muscle ([2]; 60 min post-injection): 2.60 ± 1.20 %ID/g
- Biodistribution, Spleen ([2]; 60 min post-injection): 1.46 ± 0.24 %ID/g
- Biodistribution, Stomach ([2]; 60 min post-injection): 2.98 ± 1.22 %ID/g
- Biodistribution, Blood ([2]; 120 min post-injection): 1.29 ± 0.28 %ID/g
- Biodistribution, Bone ([2]; 120 min post-injection): 1.65 ± 0.81 %ID/g
- Biodistribution, Brain ([2]; 120 min post-injection): 0.08 ± 0.02 %ID/g
- Biodistribution, Heart ([2]; 120 min post-injection): 0.93 ± 0.20 %ID/g
- Biodistribution, Intestine ([2]; 120 min post-injection): 4.75 ± 2.73 %ID/g
- Biodistribution, Kidney ([2]; 120 min post-injection): 2.27 ± 0.93 %ID/g
- Biodistribution, Liver ([2]; 120 min post-injection): 5.39 ± 3.36 %ID/g
- Biodistribution, Lungs ([2]; 120 min post-injection): 1.87 ± 0.49 %ID/g
- Biodistribution, Muscle ([2]; 120 min post-injection): 1.51 ± 0.48 %ID/g
- Biodistribution, Spleen ([2]; 120 min post-injection): 0.85 ± 0.13 %ID/g
- Biodistribution, Stomach ([2]; 120 min post-injection): 1.63 ± 0.51 %ID/g
- Biodistribution, Blood ([2]; 240 min post-injection): 0.75 ± 0.19 %ID/g
- Biodistribution, Bone ([2]; 240 min post-injection): 1.33 ± 0.30 %ID/g
- Biodistribution, Brain ([2]; 240 min post-injection): 0.04 ± 0.02 %ID/g
- Biodistribution, Heart ([2]; 240 min post-injection): 0.39 ± 0.11 %ID/g
- Biodistribution, Intestine ([2]; 240 min post-injection): 4.84 ± 2.23 %ID/g
- Biodistribution, Kidney ([2]; 240 min post-injection): 0.82 ± 0.23 %ID/g
- Biodistribution, Liver ([2]; 240 min post-injection): 2.47 ± 1.47 %ID/g
- Biodistribution, Lungs ([2]; 240 min post-injection): 0.69 ± 0.19 %ID/g
- Biodistribution, Muscle ([2]; 240 min post-injection): 0.76 ± 0.23 %ID/g
- Biodistribution, Spleen ([2]; 240 min post-injection): 0.38 ± 0.13 %ID/g
- Biodistribution, Stomach ([2]; 240 min post-injection): 1.64 ± 0.69 %ID/g
- Activity in the bone ([2]; all time points): lower than 2 %ID/g
- Radioactivity in the brain ([2]; all time points): lower than 1 %ID/g
Structure (SMILES): N#C[C@@H]1CC(F)(F)CN1C(=O)CNC(=O)c1ccnc2ccc([18F])cc12 [[^18F]3]
- Biodistribution, Intestine, single mice ([2]; 5 min post-injection (time inferred from the means)): 10.34 %ID/g and 11.05 %ID/g and 10.3 %ID/g and 22.06 %ID/g and 16.22 %ID/g
- Biodistribution, Intestine, single mice ([2]; 15 min post-injection (time inferred from the means)): 27.17 %ID/g and 17.59 %ID/g and 22.86 %ID/g and 23.43 %ID/g
- Biodistribution, Intestine, single mice ([2]; 30 min post-injection (time inferred from the means)): 31.76 %ID/g and 22.3 %ID/g and 32.3 %ID/g and 24.86 %ID/g and 56.33 %ID/g
- Biodistribution, Intestine, single mice ([2]; 60 min post-injection (time inferred from the means)): 31 %ID/g and 24.55 %ID/g and 17.85 %ID/g and 13.74 %ID/g and 9.5 %ID/g
- Biodistribution, Intestine, single mice ([2]; 90 min post-injection (time inferred from the means)): 6.25 %ID/g and 12.96 %ID/g and 10.39 %ID/g and 11.77 %ID/g and 4.91 %ID/g
- Biodistribution, Intestine, single mice ([2]; 120 min post-injection (time inferred from the means)): 6.06 %ID/g and 1.76 %ID/g and 4.52 %ID/g and 2.19 %ID/g and 9.23 %ID/g
- Biodistribution, Intestine, single mice ([2]; 240 min post-injection (time inferred from the means)): 7.72 %ID/g and 2.48 %ID/g and 5.26 %ID/g and 2.09 %ID/g and 6.66 %ID/g
- Tumor SUV (U87MG xenograft tumors): greater than 0.22
